Data: US20240246977A1, “DEGRADATION OF BRUTON'S TYROSINE KINASE (BTK) BY CONJUGATION OF BTK INHIBITORS WITH E3 LIGASE LIGAND AND METHOD OF USE” (BeiGene Switzerland GmbH, priority 2021, published 2024)

Tests used:
HEK-293 cells = test: HEK-293 cytotoxicity detection (CellTiter-Glo); type: cell-based; conditions: Homo sapiens, 72 h, 72 h incubation, CellTiter-Glo luminescence, read-out: HEK293
Outline: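 HEK-293 cells exposed 72 h to 8 compounds doses (4-fold dilutions, top stock 5 mM at 500×) in 0.2% DMSO. Viability by CellTiter-Glo luminescence; inhibition normalised to DMSO high control and low control, IC50 from four-parameter curve fit.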

BTK = BTK (Homo sapiens, UniProt Q06187); test: BTK cell degradation in TMD-8 cells, HTRF assay; type: cell-based; design: endogenous in cells; host or cells: TMD-8 cells; conditions: 6 h treatment, IC50 (DC50) of BTK degradation
Outline: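 BTK levels read by HTRF in lysates of TMD-8 cells exposed to compounds for 6 h, eight concentrations at 6-fold steps in 0.2% DMSO. Percent degradation versus DMSO and low controls was fitted with a four-parameter equation to give DC50; Dmax is maximal degradation.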

Chain of BTK (Q06187 whole entry): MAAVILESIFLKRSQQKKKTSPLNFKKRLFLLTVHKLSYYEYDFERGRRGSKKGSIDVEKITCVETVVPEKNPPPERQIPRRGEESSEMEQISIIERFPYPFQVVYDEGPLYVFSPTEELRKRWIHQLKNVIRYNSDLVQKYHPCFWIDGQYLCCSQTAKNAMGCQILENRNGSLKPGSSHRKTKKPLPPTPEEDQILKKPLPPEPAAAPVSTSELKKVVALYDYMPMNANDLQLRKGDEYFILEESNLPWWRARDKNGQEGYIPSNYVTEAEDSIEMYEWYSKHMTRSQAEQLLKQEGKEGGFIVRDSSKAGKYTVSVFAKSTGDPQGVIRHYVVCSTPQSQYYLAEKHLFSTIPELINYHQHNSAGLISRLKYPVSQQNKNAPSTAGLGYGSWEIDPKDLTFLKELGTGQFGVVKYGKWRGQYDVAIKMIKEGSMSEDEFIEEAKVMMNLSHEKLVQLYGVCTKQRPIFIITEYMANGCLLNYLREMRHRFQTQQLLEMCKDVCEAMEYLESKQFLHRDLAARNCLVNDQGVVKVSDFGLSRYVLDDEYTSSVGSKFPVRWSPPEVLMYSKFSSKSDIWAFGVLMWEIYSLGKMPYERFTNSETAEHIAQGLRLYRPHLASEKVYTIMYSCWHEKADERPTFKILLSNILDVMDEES

SMILES	IC50 (HEK-293 cells)	DC50 (BTK)
COc1ccc2ccccc2c1C(=O)N[C@H](C)c1ccc(-c2nn3c(c2C(N)=O)Nc2ccc(N4CCN(CC5CCN(c6ccc(N7CCC(=O)NC7=O)cc6)CC5)CC4)cc2CC3)cc1 [Example C13, (R)-7-(4-((1-(4-(2,4-dioxotetrahydropyrimidin-1(2H)-yl)phenyl)piperidin-4-yl)methyl)piperazin-1-yl)-2-(4-(1-(2-methoxy-1-naphthamido)ethyl)phenyl)-9,10-dihydro-4H-benzo[d]pyrazolo[1,5-a][1,3]diazepine-3-carboxamide]	> 10000 nM	11.6 nM
COc1ccccc1C(=O)N[C@H](C)c1ccc(-c2nn3c(c2C(N)=O)Nc2ccc(N4CCN(CC5CCN(c6ccc(N7CCC(=O)NC7=O)cc6)CC5)CC4)cc2CC3)cc1 [Example C14, (R)-7-(4-((1-(4-(2,4-dioxotetrahydropyrimidin-1(2H)-yl)phenyl)piperidin-4-yl)methyl)piperazin-1-yl)-2-(4-(1-(2-methoxybenzamido)ethyl)phenyl)-9,10-dihydro-4H-benzo[d]pyrazolo[1,5-a][1,3]diazepine-3-carboxamide]	> 10000 nM	2.76 nM
CC(Nc1cc(C(F)(F)F)ccn1)c1ccc(-c2nn3c(c2C(N)=O)Nc2ccc(N4CCN(CC5CCN(c6ccc(N7CCC(=O)NC7=O)cc6)CC5)CC4)cc2CC3)cc1 (centres unmarked) [Example C15, 7-(4-((1-(4-(2,4-dioxotetrahydropyrimidin-1(2H)-yl)phenyl)piperidin-4-yl)methyl)piperazin-1-yl)-2-(4-(1-((4-(trifluoromethyl)pyridin-2-yl)amino)ethyl)phenyl)-9,10-dihydro-4H-benzo[d]pyrazolo[1,5-a][1,3]diazepine-3-carboxamide]	8850 nM	14.6 nM
NC(=O)c1c(-c2ccc(C3(Nc4cc(C(F)(F)F)ccn4)CC3)cc2)nn2c1Nc1ccc(N3CCN(CC4CCN(c5ccc(N6CCC(=O)NC6=O)cc5)CC4)CC3)cc1CC2 [Example C16, 7-(4-((1-(4-(2,4-dioxotetrahydropyrimidin-1(2H)-yl)phenyl)piperidin-4-yl)methyl)piperazin-1-yl)-2-(4-(1-((4-(trifluoromethyl)pyridin-2-yl)amino)cyclopropyl)phenyl)-9,10-dihydro-4H-benzo[d]pyrazolo[1,5-a][1,3]diazepine-3-carboxamide]	> 10000 nM	60.1 nM
CCC(Nc1cc(C(F)(F)F)ccn1)c1ccc(-c2nn3c(c2C(N)=O)Nc2ccc(N4CCN(CC5CCN(c6ccc(N7CCC(=O)NC7=O)cc6)CC5)CC4)cc2CC3)cc1 (centres unmarked) [Example C17, 7-(4-((1-(4-(2,4-dioxotetrahydropyrimidin-1(2H)-yl)phenyl)piperidin-4-yl)methyl)piperazin-1-yl)-2-(4-(1-((4-(trifluoromethyl)pyridin-2-yl)amino)propyl)phenyl)-9,10-dihydro-4H-benzo[d]pyrazolo[1,5-a][1,3]diazepine-3-carboxamide]	> 10000 nM	55.1 nM
COc1ccncc1C(=O)N[C@H](C)c1ccc(-c2nn3c(c2C(N)=O)Nc2ccc(N4CCN(CC5CCN(c6ccc(N7CCC(=O)NC7=O)cc6)CC5)CC4)cc2CC3)cc1 [Example C18, (R)-7-(4-((1-(4-(2,4-dioxotetrahydropyrimidin-1(2H)-yl)phenyl)piperidin-4-yl)methyl)piperazin-1-yl)-2-(4-(1-(4-methoxynicotinamido)ethyl)phenyl)-9,10-dihydro-4H-benzo[d]pyrazolo[1,5-a][1,3]diazepine-3-carboxamide]	> 10000 nM	12.5 nM
COc1ccccc1C(=O)NCc1ccc(-c2nn3c(c2C(N)=O)Nc2ccc(N4CCN(CC5CCN(c6ccc(N7CCC(=O)NC7=O)cc6)CC5)CC4)cc2CC3)cc1F [Example C19, 7-(4-((1-(4-(2,4-dioxotetrahydropyrimidin-1(2H)-yl)phenyl)piperidin-4-yl)methyl)piperazin-1-yl)-2-(3-fluoro-4-((2-methoxybenzamido)methyl)phenyl)-9,10-dihydro-4H-benzo[d]pyrazolo[1,5-a][1,3]diazepine-3-carboxamide]	142 nM	0.848 nM
